We go through eleven compounds from patent EP1489910B1 (priority 2002, dated 2003).

One experiment deals with cucumber mosaic virus. It counts as in vivo, Cucumber mosaic virus (CMV).
The test system of a further experiment is influenza A2 (Japan 305). On the set-up: dose or concentration left out as unconfirmed. The following applies: in-vitro; 1/4 of its estimated maximum tolerated concentration; cited from earlier work.
The next experiment relates to CMV. The following applies: plants infected with CMV; one range printed for CMV and ToMV; cited from earlier work.
A further experiment deals with ToMV. Conditions: plants infected with ToMV; one range printed for CMV and ToMV; cited from earlier work.
For a further experiment, the system named is HSV. Conditions: legend not given; cited from earlier work.
Another experiment concerns PVX. Conditions: susceptible virus PVX; cited from earlier work.
In another experiment the test system is CLSV. The following applies: susceptible virus CLSV; cited from earlier work.
A further experiment concerns measles. Conditions: in-vitro; cited from earlier work.
In another experiment the test system is herpes viruses. Conditions: in-vitro; cited from earlier work.
The next experiment has as its system HSVlesions. The following applies: HSVlesions in humans; cited from earlier work.
For a further experiment, the system named is VSV. Conditions: legend not given; cited from earlier work.
In the next experiment the test system is HSV Keratitis. Conditions: HSV Keratitis in rabbits; cited from earlier work.
In the next experiment the test system is adenovirus. The following applies: no symbol given; cited from earlier work.
The next experiment deals with Vaccinia. Conditions: legend not given; cited from earlier work.
Experiment [1] relates to pseudorabies virus (Suid herpes virus 1, SHV-1). The following applies: cited from earlier work.
The mark [2] stands for this setting: 1000-ppm 2-Thiouracil as control.

Where “and” joins values, the source holds several entries; their conditions need not be identical. Identical values can stand only once. Like-named read-outs stand apart in the source and are kept apart here.

Turning to `O=c1cc[nH]c(=S)[nH]1` [2-Thiouracil], in the experiment with cucumber mosaic virus (setting [2]), the “Average No of lesions Control” value was 1.9 and 1.7 and 1.1; the “No of lesions on Control” value was 19 and 17 and 11.

Take `NC12CC3CC(CC(C3)C1)C2` [Amantadine]: in the experiment with cucumber mosaic virus (1000-ppm Amantadine as control), the “Average No of lesions Control” value was 4.5 and 4.0 and 4.8; the “No of lesions on Control” value was 45 and 40 and 48. Moreover, the “inhibition of influenza A2 (Japan 305)” value in the experiment with influenza A2 (Japan 305) is recorded as 98%.

With `O=C1NCCCN1CN1CCOCC1` [DD13, 1-Morpholino methyl-tetrahydro-2-(1H)-pyrimidinone], the “protective effect in % plants infected” value in the experiment with CMV and with ToMV was 97-100% in each case.

Regarding `CC1(C)[C@@H](O)CC[C@]2(C)[C@H]3C(=O)C=C4[C@@H]5C[C@@](C)(C(=O)O)CC[C@]5(C)CC[C@@]4(C)[C@]3(C)CC[C@@H]12` [Glycyrrhetinic acid], the Virucidal entry with HSV is recorded as “+HSV only”.

`CC1(C)[C@@H](O[C@H]2O[C@H](C(=O)O)[C@@H](O)[C@H](O)[C@H]2O[C@@H]2O[C@H](C(=O)O)[C@@H](O)[C@H](O)[C@H]2O)CC[C@]2(C)[C@H]3C(=O)C=C4[C@@H]5C[C@@](C)(C(=O)O)CC[C@]5(C)CC[C@@]4(C)[C@]3(C)CC[C@@H]12` [Glycyrrhizin]: the Virucidal result with HSV is “+slight effect”.

For `NC(=O)c1ncn([C@@H]2O[C@H](CO)[C@@H](O)[C@H]2O)n1` [Ribavirin], the “concentration needed to inhibit local lesion development and to prevent infection” value in the experiment with PVX and in the experiment with CLSV was “Approximately 1000 ppm” throughout.

For the compound `C[C@H]1O[C@@H](O[C@H]2CC[C@@]3(C)[C@@H](CC[C@]4(C)[C@@H]3C=C[C@]35OC[C@@]6(CCC(C)(C)C[C@H]63)[C@H](O)C[C@]54C)[C@]2(C)CO)[C@H](O)[C@@H](O[C@@H]2O[C@H](CO)[C@@H](O)[C@H](O)[C@H]2O)[C@H]1O` [Saikosaponin-d], the “concentration that causes inactivation” value in the experiment with measles and with herpes viruses was “greater than 5 µM” each time.

Regarding Carbenoxolone/ cicloxolone, in the experiment with HSV, the Virucidal entry is listed as “+HSV”. Moreover, the Active in vivo entry in the experiment with HSVlesions is “HSVlesions in humans”.

Regarding Hydroxy-protoprimulagenin, the “Other viruses: VSV” value in the experiment on VSV is given as “VSV Vaccinia adenovirus”. Moreover, the Virucidal entry with HSV is “+HSV only”. In addition, the Active in vivo entry in the experiment on HSV Keratitis is “HSV Keratitis in rabbits”. Besides, the “Other viruses: adenovirus” value in the experiment with adenovirus is listed as “VSV Vaccinia adenovirus”. Moreover, in the experiment on Vaccinia, the “Other viruses: Vaccinia” value is recorded as “VSV Vaccinia adenovirus”.

In the case of crossasteroside B, the inhibit plaque formation in experiment [1] is on record as 43%.

Regarding crossasteroside D, in experiment [1], the inhibit plaque formation is 27%.
